From patent US8173131B2, “Compositions and methods for modulating RSV infection and immunity” (PerkinElmer Health Sciences, Inc., priority 2000, dated 2012)
Marks after values point to notes of the source that are not given here.

Tests used:
CD3+ BAL cells = test: Intracellular cytokine expression by CD3+ T cells following in vivo peptide treatment; parameters: species or system BALB/c mice
Method: (§1) On day −1, prior to RSV infection, mice were i.p. treated (0.1 ml/mouse) with 100 μM of G glycoprotein peptides RT33 (CWAIC) (SEQ ID NO: 12), RT34 (lacks the CX3C motif) or peptides with changes in the CX3C motif (Δ+1, Δ−1, EYp1). Control mice were treated with PBS containing a similar dilution of DMSO used to solubilize the peptides.
Intracellular cytokine staining was modified for microculture staining as described (55, 57). Briefly, BAL cells were incubated in PBS containing Golgi Stop (Pharmingen) for 3 h at 37° C. to allow for accumulation of intracellular cytokines. The cells were washed in PBS containing 1% bovine serum albumin, blocked with 10% normal mouse sera diluted in PBS containing 1% bovine serum albumin, and stained (4° C., 30 min) with an appropriate dilution of anti-CD3 antibody, fixed and permeabilized in Cytofix/Cytoperm (Pharmingen). The cells were washed in Cytofix/Cytoperm buffer and stained (4° C., 30 min) with appropriate dilutions of anti-IL-2 (JES6-5H4), anti-IL-4 (BVD4-1D11), anti-IL-5 (TRFK5), IL-10 (JES3-16E3), anti-IFNγ (XMG1.2), or anti-TNFα (MP6-XT22) antibodies (Pharmingen) diluted in Cytofix/Cytoperm. Extra- and intracellular staining was analyzed by flow cytometry using a FACScan and Cell Quest software (Becton Dickinson, San Diego, Calif.). Total cytokine expression by CD3+ T cells was determined from the percent cytokine expression of CD3+ T cells and total number of cells recovered. The total number of CD3+ BAL cells expressing a particular cytokine was determined by multiplying the total number of BAL cells by the percent CD3+ cells expressing that particular cytokine.

[1] = test system: bronchoalveolar leukocytes (BAL); test: BAL cell infiltration and cell types in RSV-infected mice following in vivo peptide treatment; parameters: species or system BALB/c mice; details: in words; for total BAL numbers compared to mice treated with RT34, Δ−1 or PBS: day 3 pi; for course of BAL numbers: from day 3 to day 14 pi
Excerpt: Total pulmonary leukocyte trafficking following treatment of mice with peptides containing a CX3C motif (RT33 and EYp1) (A) or peptides without a CX3C motif (RT34, Δ+1, Δ−1)(B).
(§2) Flow cytometry results following treatment (d−1) of mice with PBS, RT33, RT34, Δ+1, Δ−1 and EYp1 peptides (100 μm). BAL cells were stained with antibodies against B220^+ (A, D, G), CD3^+ (B, E, H) and CD11b^+ (C, F, I) cells. Data is expressed as the total BAL cells/lung±SEM at days 3, 5, 7 and 14 post-infection. A representative experiment from 3 independent experiments is shown.
as §2, with “NK (DX5^+)” for “B220^+”, “(A, C, E) and PMN (RB6-8C5^+) cells (B,” for “(A,”, “F).” for “G), CD3^+ (B, E, H) and CD11b^+ (C, F, I) cells.”
as §1
Mice were anesthetized with Avertin and exsanguinated by severing the right caudal artery. Bronchoalveolar leukocyte (BAL) cells were harvested by lung lavage with PBS containing 1% bovine serum albumin (BSA, Sigma). The procedure used for extracellular staining of BAL cells was modified for microculture staining as described (55,57). Briefly, BAL cells were washed in Dulbecco's PBS (GIBCO) containing 1% bovine serum albumin (Sigma), blocked with 10% normal mouse sera diluted in PBS containing 1% bovine serum albumin, and then stained (4° C., 30 min) with an appropriate dilution of FITC-conjugated or PE-conjugated anti-CD3ε (145-2C11), anti-CD45R/B220 (RA3-6B2), anti-CD8 (Ly-2), anti-neutrophil (PMN) (RB6-8C5), anti-CD11b (M1/70) and isotype antibody controls (all from Pharmingen, San Diego, Calif.).

[2] = day 3 pi, peptide 24 hours prior to RSV infection

| Sequence | Total IC cytokine Expressing CD3^+ BAL cells (×10^3) ± SEM: IFNγ (CD3+ BAL cells; day 3 pi) | Total IC cytokine Expressing CD3^+ BAL cells (×10^3) ± SEM: IL-4 (CD3+ BAL cells; day 3 pi) | Total IC cytokine Expressing CD3^+ BAL cells (×10^3) ± SEM: IL-5 (CD3+ BAL cells; day 3 pi) | Total IC cytokine Expressing CD3^+ BAL cells (×10^3) ± SEM: IL-6 (CD3+ BAL cells; day 3 pi) | Total IC cytokine Expressing CD3^+ BAL cells (×10^3) ± SEM: TNFα (CD3+ BAL cells; day 3 pi) | Total IC cytokine Expressing CD3^+ BAL cells (×10^3) ± SEM: IL-2 (CD3+ BAL cells; [2]) | Total IC cytokine Expressing CD3^+ BAL cells (×10^3) ± SEM: IFNγ (CD3+ BAL cells; day 5 pi) | Total IC cytokine Expressing CD3^+ BAL cells (×10^3) ± SEM: IL-2 (CD3+ BAL cells; day 5 pi) | Total IC cytokine Expressing CD3^+ BAL cells (×10^3) ± SEM: IL-4 (CD3+ BAL cells; day 5 pi) | Total IC cytokine Expressing CD3^+ BAL cells (×10^3) ± SEM: IL-5 (CD3+ BAL cells; day 5 pi) | Total IC cytokine Expressing CD3^+ BAL cells (×10^3) ± SEM: IL-6 (CD3+ BAL cells; day 5 pi) | Total IC cytokine Expressing CD3^+ BAL cells (×10^3) ± SEM: TNFα (CD3+ BAL cells; day 5 pi) | Total IC cytokine Expressing CD3^+ BAL cells (×10^3) ± SEM: IFNγ (CD3+ BAL cells; day 7 pi) | Total IC cytokine Expressing CD3^+ BAL cells (×10^3) ± SEM: IL-2 (CD3+ BAL cells; day 7 pi) | Total IC cytokine Expressing CD3^+ BAL cells (×10^3) ± SEM: IL-4 (CD3+ BAL cells; day 7 pi) | Total IC cytokine Expressing CD3^+ BAL cells (×10^3) ± SEM: IL-5 (CD3+ BAL cells; day 7 pi) | Total IC cytokine Expressing CD3^+ BAL cells (×10^3) ± SEM: IL-6 (CD3+ BAL cells; day 7 pi) | Total IC cytokine Expressing CD3^+ BAL cells (×10^3) ± SEM: TNFα (CD3+ BAL cells; day 7 pi) | Total IC cytokine Expressing CD3^+ BAL cells (×10^3) ± SEM: IFNγ (CD3+ BAL cells; day 14 pi) | Total IC cytokine Expressing CD3^+ BAL cells (×10^3) ± SEM: IL-2 (CD3+ BAL cells; day 14 pi) | other results |
| --- | --- | --- | --- | --- | --- | --- | --- | --- | --- | --- | --- | --- | --- | --- | --- | --- | --- | --- | --- | --- | --- |
| NKKPGKKTTTKP [RT34] | 43 ± 9.4 ×10^3 | 43 ± 9.2 ×10^3 | 28 ± 8.0 ×10^3 | 47 ± 10 ×10^3 | 57 ± 12 ×10^3 | 40 ± 8.5 ×10^3 | 18 ± 2.6 ×10^3 | 19 ± 2.8 ×10^3 | 15 ± 2.2 ×10^3 | 24 ± 3.5 ×10^3 | 30 ± 4.4 ×10^3 | 27 ± 3.9 ×10^3 | 10 ± 3.5 ×10^3 | 7.7 ± 2.6 ×10^3 | 11 ± 3.6 ×10^3 | 8.7 ± 2.9 ×10^3 | 8.9 ± 3.0 ×10^3 | 31 ± 5.0 ×10^3 | 9.7 ± 1.5 ×10^3 | 5.4 ± 1.9 ×10^3 | Total IC cytokine Expressing CD3^+ BAL cells (×10^3) ± SEM: IL-4 (CD3+ BAL cells; day 14 pi): 8.2 ± 1.3 ×10^3; Total IC cytokine Expressing CD3^+ BAL cells (×10^3) ± SEM: IL-5 (CD3+ BAL cells; day 14 pi): 10 ± 1.7 ×10^3; Total IC cytokine Expressing CD3^+ BAL cells (×10^3) ± SEM: IL-6 (CD3+ BAL cells; day 14 pi): 11 ± 1.7 ×10^3; Total IC cytokine Expressing CD3^+ BAL cells (×10^3) ± SEM: TNFα (CD3+ BAL cells; day 14 pi): 10 ± 1.6 ×10^3 |
| TCWACKRIPNK (TCWAIACKRIPNK) [Δ − 1] | 47 ± 15 ×10^3 | 47 ± 15 ×10^3 | 49 ± 16 ×10^3 | 51 ± 17 ×10^3 | 55 ± 17 ×10^3 | 46 ± 15 ×10^3 | 10 ± 1.6 ×10^3 | 11 ± 1.7 ×10^3 | 13 ± 1.9 ×10^3 | 15 ± 2.2 ×10^3 | 13 ± 2.0 ×10^3 | 18 ± 2.7 ×10^3 | 4.7 ± 0.7 ×10^3 | 3.5 ± 0.5 ×10^3 | 2.8 ± 0.4 ×10^3 | 4.2 ± 0.6 ×10^3 | 6.3 ± 1.0 ×10^3 | 12 ± 0.7 ×10^3 | 10 ± 1.2 ×10^3 | 8.7 ± 1.0 ×10^3 | Total IC cytokine Expressing CD3^+ BAL cells (×10^3) ± SEM: IL-4 (CD3+ BAL cells; day 14 pi): 12 ± 1.4 ×10^3; Total IC cytokine Expressing CD3^+ BAL cells (×10^3) ± SEM: IL-5 (CD3+ BAL cells; day 14 pi): 14 ± 1.7 ×10^3; Total IC cytokine Expressing CD3^+ BAL cells (×10^3) ± SEM: IL-6 (CD3+ BAL cells; day 14 pi): 13 ± 1.6 ×10^3; Total IC cytokine Expressing CD3^+ BAL cells (×10^3) ± SEM: TNFα (CD3+ BAL cells; day 14 pi): 11 ± 1.4 ×10^3 |
| TCWAIACKRIPNK [Δ + 1] | 18 ± 2.2 ×10^3 | 18 ± 2.3 ×10^3 | 23 ± 2.9 ×10^3 | 21 ± 2.8 ×10^3 | 19 ± 2.5 ×10^3 | 15 ± 2.0 ×10^3 | 17 ± 5.3 ×10^3 | 16 ± 5.1 ×10^3 | 20 ± 6.2 ×10^3 | 23 ± 7.2 ×10^3 | 21 ± 6.5 ×10^3 | 21 ± 6.8 ×10^3 | 5.6 ± 1.6 ×10^3 | 7.5 ± 2.2 ×10^3 | 5.8 ± 1.7 ×10^3 | 9.9 ± 2.9 ×10^3 | 11 ± 3.3 ×10^3 | 15 ± 2.9 ×10^3 | 11 ± 3.5 ×10^3 | 10 ± 3.2 ×10^3 | Total IC cytokine Expressing CD3^+ BAL cells (×10^3) ± SEM: IL-4 (CD3+ BAL cells; day 14 pi): 14 ± 4.2 ×10^3; Total IC cytokine Expressing CD3^+ BAL cells (×10^3) ± SEM: IL-5 (CD3+ BAL cells; day 14 pi): 16 ± 4.9 ×10^3; Total IC cytokine Expressing CD3^+ BAL cells (×10^3) ± SEM: IL-6 (CD3+ BAL cells; day 14 pi): 12 ± 3.7 ×10^3; Total IC cytokine Expressing CD3^+ BAL cells (×10^3) ± SEM: TNFα (CD3+ BAL cells; day 14 pi): 15 ± 4.7 ×10^3; total BAL numbers compared to mice treated with RT34, Δ−1 or PBS [1]: reduced BAL infiltrate; course of BAL numbers [1]: increased |
| TCWAICKRIPNK [RT33] | 24 ± 5.6 ×10^3 | 24 ± 6.0 ×10^3 | 22 ± 5.6 ×10^3 | 27 ± 6.8 ×10^3 | 28 ± 7.0 ×10^3 | 26 ± 6.5^c ×10^3 | 8.0 ± 1.0 ×10^3 | 9.0 ± 1.1 ×10^3 | 11 ± 1.3 ×10^3 | 12 ± 1.5 ×10^3 | 9.0 ± 1.2 ×10^3 | 9.0 ± 1.1 ×10^3 | 3.6 ± 0.5 ×10^3 | 2.4 ± 0.3 ×10^3 | 2.3 ± 0.3 ×10^3 | 5.2 ± 0.7 ×10^3 | 5.8 ± 0.8 ×10^3 | 13 ± 0.8 ×10^3 | 6.5 ± 2.1 ×10^3 | 3.0 ± 1.0 ×10^3 | Total IC cytokine Expressing CD3^+ BAL cells (×10^3) ± SEM: IL-4 (CD3+ BAL cells; day 14 pi): 8.2 ± 2.7 ×10^3; Total IC cytokine Expressing CD3^+ BAL cells (×10^3) ± SEM: IL-5 (CD3+ BAL cells; day 14 pi): 5.3 ± 1.7 ×10^3; Total IC cytokine Expressing CD3^+ BAL cells (×10^3) ± SEM: IL-6 (CD3+ BAL cells; day 14 pi): 4.7 ± 1.5 ×10^3; Total IC cytokine Expressing CD3^+ BAL cells (×10^3) ± SEM: TNFα (CD3+ BAL cells; day 14 pi): 8.7 ± 2.6 ×10^3; total BAL numbers compared to mice treated with RT34, Δ−1 or PBS [1]: reduced BAL numbers; numbers of BAL cell types (B220+, CD3+, CD11b+, NK, PMN) ([1]; days 3, 5, 7 and 14 pi): reduced numbers of BAL cell types; course of BAL numbers [1]: declined |
